# Experiments:
# HIV-1-infected T cells = experiment: Annexin V / DEVD-FITC / p24 cell death assay in T cells with or without HIV-1 infection; format: cell-based, human; settings: for IDB-induced killing of T cells latently infected by HIV-1: added to 0.1 μM IDB, SAR405 2 μM or ABT-263 0.2 μM; for IDB-induced cell death in HIV-1-infected CMT: autophagy inhibitor added to 100 nM IDB, 24 h
# Protocol: Naïve T cells, activated T cells, CMT or EMT with or without infection with HIV-1 (NL4-3, 1 MOI) were cultured for 4 days in the presence of 30 nM CCL19 and 0.3 ng/ml IL-2 for 4 days to establish latent HIV infection. […] The cells were then incubated with 1 μM FITC-DEVD-FMK (Biovision), followed by staining with APC-Annexin V (Biolegend) and intracellular staining with PE-anti-HIV p24. The cells were analyzed by flow cytometry. The percentage of cell death was calculated by the loss of live cells negative for annexin V and DEVD staining by comparing treated and untreated groups: (untreated—treated)/untreated x 100%.
# [1] = test system: HIV-1-infected cells and uninfected bystander T cells; experiment: Mixed culture of HIV-1-infected and CellTrace Violet-labeled uninfected T cells; settings: alone or together, 0.2 μM BMS-626529 present, 48 h
# Protocol: To determine the specificity in the killing of HIV-1 infected cells, uninfected CD4 cells were labeled with CellTrace Violet dye (ThermoFisher Scientific) and mixed with HIV-1-infected cells at the ratio of 1:1. The cells were resuspended in RIPMI complete medium containing 0.2 μM BMS-626529, with 0.1 μM IDB, 0.2 μM ABT-263 and 2 μM SAR405 as indicated for 48 h. The cells were incubated with 1 μM FITC-DEVD-FMK, followed by staining with APC-Annexin and analyses by flow cytometry.
# [2] = test system: CMT latently infected with HIV-1; experiment: HIV-1 latency reversal in latently infected central memory T cells (p24 staining, HIV-1 mRNA RT-PCR); format: cell-based, human; settings: for number of HIV-1 p24-producing T cells after latency reversal: latently infected CMT stimulated with IDB, SAR405 2 μM or CQ 10 μM
# Excerpt: Flow cytometry. The following antibodies from Biolegend were used for flow cytometry: Pacific Blue-anti-mouse CD45 (1:100, 103126, clone 30-F11,) APC-anti-human CD45 (1:100, 304012, clone HI30), Pacific Blue-anti-human CD19 (1:100, 302232, clone HIB19), PE-anti-human CD4 (1:100, 317414, clone OKT4), APC/Fire-750-anti-human CD8 (1:100, 34474, clone SK1), FITC-anti-human CD56 (1:100, 392413, clone QA17A16), Pacific Blue-anti-human CD19 (1:100, 302232, clone HIB19), Pacific Blue-anti-human CD3 (1:100, 300329, clone HIT3a), PE/Cy7-anti-HLA-HLA-DR, DP, DQ (1:100, 361708, clone Tü139), PerCP/Cy5.5-anti-human CD11b (1:100, 301327, clone ICRF44), APC/Fire-750-anti-human CD163 (1:100, 333633, clone GHI/61), PE-anti-human CD123 (1:100, 306005, clone 6H6), Alexa Fluor 488 anti-human CD11c (1:100, 301618, clone 3.9), PerCP/Cy5.5-anti-human CD3 (1:100, 300328, clone HIT3a), PerCP/Cy5.5 anti-human CD123 (1:100, 306016, clone 6H6), FITC-anti-mouse CD45 (1:100, 103108, clone 30-F11), PE/Cy7 anti-human CD197 (CCR7) (1:100, 353226, clone G043H7), PE-anti-human CD45R0 (1:100, 304244, clone UCHL1), FITC-anti-human CD45RA (1:100, 304148, clone HI100) and Alexa Fluor 488-anti-CD68 (1:30, 333812, clone Y1/82A), PerCP/Cy5.5-anti-human CD19 (1:100, 302230, clone HIB19), PE-anti-human CD27 (1:100, 356406, clone M-T271) and Pacific Blue-anti-human IgD (1:100, 348224, clone IA6-2). PE-anti-human CD3 (1:100, 556612, clone SP34) and V50-anti-human CD4 (1:100, 560345, clone RPA-T4) were from BD Biosciences. The cells stained with indicated antibodies were analyzed using a BD LSR II flow cytometer (BD Biosciences). To detect HIV-1 p24, spleen cells from Hu-HSC mice were stimulated with 5 μg/ml PHA (Sigma) and 6 ng/ml IL-2 (Biolegend). The cells were stained for T cell markers, followed by fixation and permeabilization using the Cytofix/Cytoperm buffer (BD Bioscience) and intracellular staining with PE-conjugated anti-p24 (1:30, 6604667, clone KC57, Beckman Coulter). The cells were analyzed by flow cytometry using a BD LSR II flow cytometer (BD Bioscience) and FlowJo software (version 10.5.3, BD Bioscience).
# T cell isolation and infection with HIV-1. Peripheral blood mononuclear cells (PBMCs) of anonymous healthy donors from the Gulf Coast Blood Center were used to purify CD4^+ T cells with anti-CD4 MACS beads (Miltenyi Biotec). CD3^+CD4^+CD45RA^+CD45RO^−CCR7^+ naïve T cells, CD3^+CD4^+CD45RA^−CD45RO^+CCR7+ central memory T cells (CMT) and CD3^+CD4^+CD45RA^−CD45RO^+CCR7^− effector memory T cells (EMT) were sorted using a BD FACSAria flow cytometer (BD Bioscience). Naive CD4^+ T cells were stimulated with 5 μg/ml PHA and 6 ng/ml IL-2 in RPMI complete medium for 2 days to generate activated CD4^+ T cells. Sorted T cell subsets or activated T cells were infected with HIV-1 CXCR4-tropic NL4-3 or CCRS-tropic AD8 (both virus clones were obtained from the NIH AIDS Reagent Program) at the indicated MOI for 2 h. The cells were washed with PBS and cultured in RPMI complete medium containing 30 nM CCL19 (Biolegend) and 0.3 ng/ml IL-2 (Biolegend) and for 4 days to establish latent HIV infection as described.
# Naïve T cells, activated T cells, CMT or EMT with or without infection with HIV-1 (NL4-3, 1 MOI) were cultured for 4 days in the presence of 30 nM CCL19 and 0.3 ng/ml IL-2 for 4 days to establish latent HIV infection. The cells with or without HIV-1 infections were stimulated with 0.1 μM IDB (Ingenol-3,20-dibenzonate, ENZO Life Sciences) in the presence of 0.2 μM ABT-263 (Adooq Bioscience), 2 μM SAR405 (MedChemExpress) or 10 μM chloroquine (CQ, Sigma) as indicated for 48 h. The cells were then incubated with 1 μM FITC-DEVD-FMK (Biovision), followed by staining with APC-Annexin V (Biolegend) and intracellular staining with PE-anti-HIV p24. The cells were analyzed by flow cytometry. The percentage of cell death was calculated by the loss of live cells negative for annexin V and DEVD staining by comparing treated and untreated groups: (untreated—treated)/untreated x 100%. […]
# [3] = test system: HIV-1-infected Hu-HSC mice; experiment: SECH treatment of HIV-1-infected Hu-HSC mice (HIV-1 by RT-PCR, rebound after withdrawal); format: in vivo; settings: JQ1 25 mg/kg b.w. included in SECH
# Protocol: Raltegravir and BMS-663068 (20 mg/kg b.w.) were included as the ART regimen daily. Mice in the control group received ART only daily.
# Quantification of HIV-1 mRNA and DNA. HIV-1 mRNA was measured by RT-PCR similar to the described protocols. […] The reaction was carried out by iTaq Universal Probes Supermix (Bio-Rad) with a QuantStudio 5 Real-Time PCR System and analyzed with the QuantStudio Design and Analysis Software (Applied Biosystem). Cycle threshold (Ct) values were calibrated using standard curve generated with the standard samples with known amounts of viral copies.
# Spleen cells were isolated and red blood cells were lysed with ammonium chloride lysing buffer (0.15 M NH4Cl, 10 mM KHCO3, 0.1 mM EDTA). Bone marrow cells were collected from femur and tibia. […]
# Generation of humanized mice for HIV-1 infection and cure studies. […] Three months later, reconstitution of human immune cells in mouse peripheral blood was determined by flow cytometry. […]
# Raltegravir and BMS-663068 (20 mg/kg b.w.) alone were also administered on the alternate days. […] During treatments, mice were monitored daily for body weight, food consumption and mobilities. […]
# Peripheral blood was collected at different intervals to detect HIV-1 mRNA by RT-PCR. […] Virus clearance was determined in the spleen, bone marrow by RT-PCR, TZA assay and p24 intracellular staining.
# [4] = test system: splenocytes of HIV-1-infected Hu-HSC mice; experiment: PHA stimulation of splenocytes from Hu-HSC mice 10 days after HIV-1 infection; format: cell-based; settings: PHA 24 h
# Protocol: FIGS. 11A-11C show analyses of Hu-HSC mice by flow cytometry. (FIG. 11A) Flow cytometry analyses of immune cells in the peripheral blood of Hu-HSC mice. NK, nature killer cells; DC, dendritic cells; M1, M1 macrophages; M2, M2 macrophages. (FIG. 11B) Spleen cells were isolated from Hu-HSC mice (n=4) 10 days post HIV-1 infection and cultured with or without PHA for 24 h. Culture media were collected for HIV-1 mRNA determination by RT-PCR. Data are presented as mean ±SD. PHA vs. control, **p=0.0088 (unpaired two-tailed t test). (FIG. 11C) Spleen cells treated in (b) were stained for CD4, followed by intracellular staining of HIV-1 p24 and flow cytometry analysis. […] Data are presented as mean ±SD. PHA vs. control, **p=0.0003 (unpaired two-tailed t test).
# Flow cytometry. […] The cells stained with indicated antibodies were analyzed using a BD LSR II flow cytometer (BD Biosciences). […] The cells were analyzed by flow cytometry using a BD LSR II flow cytometer (BD Bioscience) and FlowJo software (version 10.5.3, BD Bioscience).
Compound,IDB-induced killing of T cells latently infected by HIV-1 (HIV-1-infected T cells; 48 h),killing of HIV-1-infected cells in mixed culture [1],killing of uninfected bystander cells in mixed culture [1],IDB-induced cell death in HIV-1-infected CMT (HIV-1-infected T cells),number of HIV-1 p24-producing T cells after latency reversal [2],also measured
"CC1(C)CCC(c2ccc(Cl)cc2)=C(CN2CCN(c3ccc(C(=O)NS(=O)(=O)c4ccc(N[C@H](CCN5CCOCC5)CSc5ccccc5)c(S(=O)(=O)C(F)(F)F)c4)cc3)CC2)C1 [ABT-263, navitoclax]",increased IDB-mediated cell death,killed HIV-1-infected cells,resistant,,,"loss of viable HIV-1 p24+ cells in IDB-stimulated HIV-1-infected cells (HIV-1-infected T cells; ABT-263 0.2 μM with IDB, 48 h): significantly increased"
"CCN(CC)CCCC(C)Nc1ccnc2cc(Cl)ccc12 (centres unmarked) [CQ, Chloroquine]",,,,promoted,reduced the number of HIV-1 p24-producing T cells,
Cc1sc2c(c1C)C(c1ccc(Cl)cc1)=N[C@@H](CC(=O)OC(C)(C)C)c1nnc(C)n1-2 [JQ1],,,,,,HIV-1 reactivation and clearance on inclusion of JQ1 in SECH [3]: further increased HIV-1 reactivation and clearance
C[C@@H]1COCCN1c1cc(=O)n2c(n1)N(Cc1cncc(Cl)c1)[C@H](C(F)(F)F)CC2 [SAR405],increased IDB-induced killing,killed HIV-1-infected cells,resistant,promoted,decreased the number of HIV-1 p24-producing T cells,induction of HIV-1 p24 expression by IDB-induced latency reversal ([2]; CMT infected with HIV-1 AD8 at 1 MOI): inhibited
phytohemagglutinin [PHA],,,,,,"expression of HIV-1 mRNA in splenocytes [4]: induced the expression of HIV-1 mRNA; production of Gag p24 in CD4+ T cells [4]: production of Gag p24; latency reversal of HIV-1 shown by induction of p24 expression ([2]; CMT, HIV-1 NL4-3 0.1 MOI, 4 days latency): led to latency reversal of HIV-1; latency reversal observed by expression of HIV-1 mRNA after stimulation ([2]; latently infected cells, pol RT-PCR): Latency reversal was also observed"

# Source: patent US20230011398A1, “COMBINATION THERAPY APPROACH TO ELIMINATE HIV INFECTIONS” (priority 2019, published 2023)
